Laboratory results from patent US20250368649A1, “TETRAHYDROPYRIDOPYRIMIDINE PAN-KRAS INHIBITORS” (Mirati Therapeutics, Inc., priority 2022, published 2025).

Tests used:
[1] = molecular target: KRas WT (Homo sapiens, UniProt P01116); assay: KRas binding assay (TR-FRET displacement), KRas WT; settings: TR-FRET displacement
[2] = molecular target: KRas G12C (Homo sapiens, UniProt P01116, G12C); assay type: binding; settings: TR-FRET displacement, read-out: Binding to KRas (IC50 nM) G12C
[3] = molecular target: KRas G12S (Homo sapiens, UniProt P01116, G12S); assay type: binding; settings: TR-FRET displacement, read-out: Binding to KRas (IC50 nM) G12S
[4] = system: ASPC1 cells; assay: Inhibition of KRas-mediated phosphorylation of ERK (Cisbio HTRF pERK), ASPC1 cells; assay type: cell-based; settings: Homo sapiens, AsPC-1 cells; for IC50: ASPC1, 3 h, 3 hr compound incubation; for inhibition at 0.1 µM: ASPC1, single point at 100 nM, 3 hrs compound incubation
[5] = system: H727 cells; assay: Inhibition of KRas-mediated phosphorylation of ERK (Cisbio HTRF pERK), H727 cells; assay type: cell-based; settings: Homo sapiens; for IC50: NCI-H727, 3 h, 3 hr compound incubation; for inhibition at 0.1 µM: NCI-H727, single point at 100 nM, 3 hrs compound incubation
[6] = system: A549 cells; assay: Inhibition of KRas-mediated phosphorylation of ERK (Cisbio HTRF pERK), A549 cells; assay type: cell-based; settings: Homo sapiens; for IC50: A549, 3 h, 3 hr compound incubation; for inhibition at 0.1 µM: single point at 100 nM, 3 hrs compound incubation
[7] = system: H460 cells; assay: Inhibition of KRas-mediated phosphorylation of ERK (Cisbio HTRF pERK), H460 cells; assay type: cell-based; settings: Homo sapiens; for IC50: NCI-H460, 3 h, 3 hr compound incubation; for inhibition at 0.1 µM: NCI-H460, single point at 100 nM, 3 hrs compound incubation
[8] = system: HCT116 cells; assay: Inhibition of KRas-mediated phosphorylation of ERK (Cisbio HTRF pERK), HCT116 cells; assay type: cell-based; settings: Homo sapiens; for IC50: HCT-116, 3 h, 3 hr compound incubation; for inhibition at 0.1 µM: HCT-116, single point at 100 nM, 3 hrs compound incubation
[9] = system: H358 cells; assay: Inhibition of KRas-mediated phosphorylation of ERK (Cisbio HTRF pERK), H358 cells; assay type: cell-based; settings: Homo sapiens; for IC50: NCI-H358, 3 h, 3 hr compound incubation; for inhibition at 0.1 µM: NCI-H358, single point at 100 nM, 3 hrs compound incubation
[10] = molecular target: KRas G12D (Homo sapiens, UniProt P01116, G12D); assay: biochemical; settings: Binding to KRas (IC50 nM) G12D, TR-FRET displacement, KRas G12D
[11] = molecular target: KRas G12V (Homo sapiens, UniProt P01116, G12V); assay: biochemical; settings: Binding to KRas (IC50 nM) G12V, TR-FRET displacement, KRas G12V
[12] = molecular target: KRas G12R (Homo sapiens, UniProt P01116, G12R); assay: biochemical; settings: Binding to KRas (IC50 nM) G12R, TR-FRET displacement, KRas G12R
[13] = molecular target: KRas G12A (Homo sapiens, UniProt P01116, G12A); assay type: binding; settings: TR-FRET displacement, read-out: Binding to KRas (IC50 nM) G12A
[14] = molecular target: KRas G13D (Homo sapiens, UniProt P01116, G13D); assay type: binding; settings: TR-FRET displacement, read-out: Binding to KRas (IC50 nM) G13D
[15] = molecular target: KRas Q61H (Homo sapiens, UniProt P01116, Q61H); assay: KRas binding assay (TR-FRET displacement), KRas Q61H; settings: TR-FRET displacement
KRas Q61H, sequence (P01116 1-169 isoform P01116-2 Q61H): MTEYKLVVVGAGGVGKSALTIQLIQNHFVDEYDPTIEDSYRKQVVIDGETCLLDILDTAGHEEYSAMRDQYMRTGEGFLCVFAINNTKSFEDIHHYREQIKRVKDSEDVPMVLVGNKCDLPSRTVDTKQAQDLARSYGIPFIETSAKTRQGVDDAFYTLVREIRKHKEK

KRas G12R, sequence (P01116 1-169 isoform P01116-2 G12R): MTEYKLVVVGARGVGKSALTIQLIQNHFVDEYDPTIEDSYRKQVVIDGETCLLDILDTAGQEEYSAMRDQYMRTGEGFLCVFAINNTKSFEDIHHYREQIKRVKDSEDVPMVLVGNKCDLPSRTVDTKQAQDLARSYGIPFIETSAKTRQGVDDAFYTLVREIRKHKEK
KRas G12V, sequence (P01116 1-169 isoform P01116-2 G12V): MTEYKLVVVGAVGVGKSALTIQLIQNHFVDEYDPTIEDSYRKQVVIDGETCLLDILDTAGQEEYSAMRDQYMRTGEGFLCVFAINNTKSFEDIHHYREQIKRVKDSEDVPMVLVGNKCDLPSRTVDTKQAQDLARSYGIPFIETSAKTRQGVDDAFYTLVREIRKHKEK
KRas G12C, sequence (P01116 1-169 isoform P01116-2 G12C): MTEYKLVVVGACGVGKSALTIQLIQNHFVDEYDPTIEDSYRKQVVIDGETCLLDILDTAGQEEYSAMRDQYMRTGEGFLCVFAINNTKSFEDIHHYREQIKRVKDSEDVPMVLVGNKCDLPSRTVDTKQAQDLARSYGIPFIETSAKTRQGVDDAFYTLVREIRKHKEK
KRas G12D, sequence (P01116 1-169 isoform P01116-2 G12D): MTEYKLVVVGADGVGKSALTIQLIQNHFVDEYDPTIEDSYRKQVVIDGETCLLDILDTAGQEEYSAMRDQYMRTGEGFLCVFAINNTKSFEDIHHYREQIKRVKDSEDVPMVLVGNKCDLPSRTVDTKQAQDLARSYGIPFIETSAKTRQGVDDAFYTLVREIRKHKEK
KRas G12S, sequence (P01116 1-169 isoform P01116-2 G12S): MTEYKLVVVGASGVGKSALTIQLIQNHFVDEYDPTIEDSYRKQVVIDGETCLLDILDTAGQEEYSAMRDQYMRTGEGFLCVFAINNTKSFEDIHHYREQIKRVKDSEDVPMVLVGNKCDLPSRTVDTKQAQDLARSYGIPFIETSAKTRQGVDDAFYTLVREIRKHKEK
KRas WT, sequence (P01116 1-169 isoform P01116-2): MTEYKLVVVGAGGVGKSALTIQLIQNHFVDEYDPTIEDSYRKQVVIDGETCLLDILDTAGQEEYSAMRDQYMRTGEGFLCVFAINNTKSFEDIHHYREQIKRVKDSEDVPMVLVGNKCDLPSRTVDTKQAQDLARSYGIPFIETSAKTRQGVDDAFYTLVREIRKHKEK
KRas G12A, sequence (P01116 1-169 isoform P01116-2 G12A): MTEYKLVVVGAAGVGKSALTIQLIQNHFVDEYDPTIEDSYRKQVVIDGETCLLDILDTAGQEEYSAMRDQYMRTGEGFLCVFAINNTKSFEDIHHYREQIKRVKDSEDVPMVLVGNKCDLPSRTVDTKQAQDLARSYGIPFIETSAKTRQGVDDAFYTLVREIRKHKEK
KRas G13D, sequence (P01116 1-169 isoform P01116-2 G13D): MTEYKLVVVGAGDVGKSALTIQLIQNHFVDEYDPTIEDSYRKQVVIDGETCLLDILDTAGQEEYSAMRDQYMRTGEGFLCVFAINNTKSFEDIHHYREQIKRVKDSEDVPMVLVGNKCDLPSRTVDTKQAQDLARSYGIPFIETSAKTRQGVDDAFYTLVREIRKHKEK

| SMILES | IC50 [1] [nM] | IC50 [2] [nM] | IC50 [3] [nM] | IC50 [4] [nM] | IC50 [5] [nM] | IC50 [6] [nM] | IC50 [9] [nM] | IC50 [10] [nM] | IC50 [11] [nM] | IC50 ([4]; Cisbio pERK HTRF) [nM] | IC50 ([5]; Cisbio pERK HTRF) [nM] | IC50 [12] [nM] | IC50 [13] [nM] | IC50 [14] [nM] | inhibition at 0.1 µM [4] [%] | inhibition at 0.1 µM [5] [%] | inhibition at 0.1 µM [6] [%] | inhibition at 0.1 µM [7] [%] | inhibition at 0.1 µM [8] [%] | inhibition at 0.1 µM [9] [%] | other results |
| --- | --- | --- | --- | --- | --- | --- | --- | --- | --- | --- | --- | --- | --- | --- | --- | --- | --- | --- | --- | --- | --- |
| C[C@@H]1C[C@@H]1c1c(Cl)cc(O)cc1N1CCc2c(nc(OC[C@@]34CCCN3C[C@H](F)C4)nc2N2CCC[C@@](C)(O)C2)C1 (stereo in doubt) [Example 655, (R)-1-(7-(3-chloro-5-hydroxy-2-(cis-2-methylcyclopropyl)phenyl)-2-(((2R,7aS)-2-fluorotetrahydro-1H-pyrrolizin-7a(5H)-yl)methoxy)-5,6,7,8-tetrahydropyrido[3,4-d]pyrimidin-4-yl)-3-methylpiperidin-3-ol] | 5 | 4 | 5 | 247 | 525 | 359 | 189 | 5 | 4 | – | – | – | – | – | – | – | – | – | – | – | IC50 [7]: 237 nM; IC50 [8]: 926 nM |
| CCc1cccc2cccc(N3CCc4c(nc(OCC5(CN(C)C)CC5)nc4N4CCCC(c5nnc[nH]5)C4)C3)c12 (centres unmarked) [Example 514, 1-(1-(((4-(3-(4H-1,2,4-triazol-3-yl)piperidin-1-yl)-7-(8-ethylnaphthalen-1-yl)-5,6,7,8-tetrahydropyrido[3,4-d]pyrimidin-2-yl)oxy)methyl)cyclopropyl)-N,N-dimethylmethanamine] | 252 | 286 | 318 | – | – | – | – | 3220 | 1570 | – | – | – | 296 | 372 | – | – | – | – | – | – | IC50 [15]: 389 nM |
| CCc1cccc2cccc(N3CCc4c(nc(OCC5(CN(C)C)CC5)nc4N4CCCOC(CCO)C4)C3)c12 (centres unmarked) [Example 515, 2-(4-(2-((1-((dimethylamino)methyl)cyclopropyl)methoxy)-7-(8-ethylnaphthalen-1-yl)-5,6,7,8-tetrahydropyrido[3,4-d]pyrimidin-4-yl)-1,4-oxazepan-2-yl)ethan-1-ol] | 622 | 373 | 725 | – | – | – | – | 298 | 346 | – | – | – | 656 | 988 | – | – | – | – | – | – | IC50 [15]: 877 nM |
| CCc1cccc2cccc(N3CCc4c(nc(OCC5(CN(C)C)CC5)nc4N4CC(C)CC(CO)C4)C3)c12 (centres unmarked) [Example 516, (1-(2-((1-((dimethylamino)methyl)cyclopropyl)methoxy)-7-(8-ethylnaphthalen-1-yl)-5,6,7,8-tetrahydropyrido[3,4-d]pyrimidin-4-yl)-5-methylpiperidin-3-yl)methanol] | 2650 | 1030 | 1560 | – | – | – | – | 1230 | 1150 | – | – | – | 1490 | 3180 | – | – | – | – | – | – | IC50 [15]: 2530 nM |
| CCc1c(F)ccc2cc(O)cc(N3CCc4c(nc(OCC5(CN(C)C)CC5)nc4N4CCOC(c5n[nH]c(CO)n5)C4)C3)c12 (centres unmarked) [Example 602, 4-(2-((1-((dimethylamino)methyl)cyclopropyl)methoxy)-4-(2-(5-(hydroxymethyl)-1H-1,2,4-triazol-3-yl)morpholino)-5,8-dihydropyrido[3,4-d]pyrimidin-7(6H)-yl)-5-ethyl-6-fluoronaphthalen-2-ol] | – | – | – | – | – | – | – | 44 | 6 | > 10000 | > 10000 | 3 | – | – | – | – | – | – | – | – | IC50 ([6]; Cisbio pERK HTRF): > 10000 nM; IC50 ([7]; Cisbio pERK HTRF): 7580 nM; IC50 ([8]; Cisbio pERK HTRF): > 10000 nM; IC50 ([9]; Cisbio pERK HTRF): 907 nM |
| CN(C)C(=O)c1cc2n(n1)CCCN(c1nc(OC[C@@]34CCCN3C[C@H](F)C4)nc3c1CCN(c1ccc(F)c4sc(N)c(C#N)c14)C3)C2 [Example 709, 5-(7-(2-amino-3-cyano-7-fluorobenzo[b]thiophen-4-yl)-2-(((2R,7aS)-2-fluorotetrahydro-1H-pyrrolizin-7a(5H)-yl)methoxy)-5,6,7,8-tetrahydropyrido[3,4-d]pyrimidin-4-yl)-N,N-dimethyl-5,6,7,8-tetrahydro-4H-pyrazolo[1,5-a][1,4]diazepine-2-carboxamide] | 95 | 72 | 83 | 4290 | 4720 | 8710 | 1250 | 17 | 31 | – | – | – | – | – | – | – | – | – | – | – | – |

More lines, main results first:

| IC50 [1] [nM] | IC50 [2] [nM] | IC50 [3] [nM] | IC50 [4] [nM] | IC50 [5] [nM] | IC50 [6] [nM] | IC50 [9] [nM] | IC50 [10] [nM] | IC50 [11] [nM] | IC50 ([4]; Cisbio pERK HTRF) [nM] | IC50 ([5]; Cisbio pERK HTRF) [nM] | IC50 [12] [nM] | IC50 [13] [nM] | IC50 [14] [nM] | SMILES | inhibition at 0.1 µM [4] [%] | inhibition at 0.1 µM [5] [%] | inhibition at 0.1 µM [6] [%] | inhibition at 0.1 µM [7] [%] | inhibition at 0.1 µM [8] [%] | inhibition at 0.1 µM [9] [%] | other results |
| --- | --- | --- | --- | --- | --- | --- | --- | --- | --- | --- | --- | --- | --- | --- | --- | --- | --- | --- | --- | --- | --- |
| – | – | – | – | – | – | – | 11 | 7 | 9040 | 3940 | 6 | – | – | CCc1c(F)ccc2cc(O)cc(N3CCc4c(nc(OC[C@@]56CCCN5C[C@H](F)C6)nc4N4CCCCC(COCC(N)=O)C4)C3)c12 (stereo partly drawn) [Example 492, 2-((1-(7-(8-ethyl-7-fluoro-3-hydroxynaphthalen-1-yl)-2-(((2R,7aS)-2-fluorohexahydro-1H-pyrrolizin-7a-yl)methoxy)-5,6,7,8-tetrahydropyrido[3,4-d]pyrimidin-4-yl)azepan-3-yl)methoxy)acetamide] | -11 | 0 | -24 | 6 | 23 | -3 | – |
| – | – | – | – | – | – | – | 12 | 26 | 749 | 2580 | 24 | – | – | CCc1c(F)ccc2cc(O)cc(N3CCc4c(nc(OC[C@@]56CCCN5C[C@H](F)C6)nc4N4CCCn5nc(CS(=O)(=O)N(C)C)cc5C4)C3)c12 [Example 494, 1-(5-(7-(8-ethyl-7-fluoro-3-hydroxynaphthalen-1-yl)-2-(((2R,7aS)-2-fluorohexahydro-1H-pyrrolizin-7a-yl)methoxy)-5,6,7,8-tetrahydropyrido[3,4-d]pyrimidin-4-yl)-5,6,7,8-tetrahydro-4H-pyrazolo[1,5-a][1,4]diazepin-2-yl)-N,N-dimethylmethanesulfonamide] | -4 | 13 | 14 | 4 | 4 | 8 | – |
| – | – | – | – | – | – | – | < 2 | < 2 | 124 | 1310 | 3 | – | – | CCc1c(F)ccc2cc(O)cc(N3CCc4c(nc(OC[C@@]56CCCN5C[C@H](F)C6)nc4N4CCCn5nc(C(=O)N6CC7CC6CN7)cc5C4)C3)c12 (stereo partly drawn) [Example 502, 2,5-diazabicyclo[2.2.1]heptan-2-yl(5-(7-(8-ethyl-7-fluoro-3-hydroxynaphthalen-1-yl)-2-(((2R,7aS)-2-fluorohexahydro-1H-pyrrolizin-7a-yl)methoxy)-5,6,7,8-tetrahydropyrido[3,4-d]pyrimidin-4-yl)-5,6,7,8-tetrahydro-4H-pyrazolo[1,5-a][1,4]diazepin-2-yl)methanone] | 22 | 7 | 11 | 7 | 8 | 5 | – |
| – | – | – | 6520 | 3710 | 3100 | 1100 | 124 | 29 | – | – | 34 | – | – | CCc1c(F)ccc2cc(O)cc(N3CCc4c(nc(OC[C@@]56CCCN5C[C@H](F)C6)nc4N4CCCN(CC(F)(F)F)CC4)C3)c12 [Example 649, 5-ethyl-6-fluoro-4-(2-(((2R,7aS)-2-fluorotetrahydro-1H-pyrrolizin-7a(5H)-yl)methoxy)-4-(4-(2,2,2-trifluoroethyl)-1,4-diazepan-1-yl)-5,8-dihydropyrido[3,4-d]pyrimidin-7(6H)-yl)naphthalen-2-ol] | – | – | – | – | – | – | IC50 [7]: 2440 nM; IC50 [8]: > 10000 nM |
